From patent publication US20100015225A1, “SOLID DISPERSION OF A NEUROKININ ANTAGONIST” (priority 2006, published 2010)

Experiment: Super-saturation studies: in-vitro dissolution in different media (SGF, FaSSIF, FeSSIF, buffer pH 7)
Format: physicochemical
Details: ~4 mg/ml = 100% release
Source text: The in-vitro dissolution of the HPMC-based solid dispersion 1B (Component 1B) and that of the enteric HPMC-P based solid dispersion 2D (Component 2D) were studied in different media and compared to the crystalline-hemihydrate or the amorphous compound A.

Row | Concentration of Compound A (FaSSIF, 10 min) [µg/mL] | Concentration of Compound A (FaSSIF, 30 min) [µg/mL] | Concentration of Compound A (FaSSIF, 60 min) [µg/mL] | Concentration of Compound A (FaSSIF, 180 min) [µg/mL] | Concentration of Compound A (FeSSIF, 10 min) [µg/mL] | Concentration of Compound A (FeSSIF, 30 min) [µg/mL] | Concentration of Compound A (FeSSIF, 60 min) [µg/mL] | Concentration of Compound A (FeSSIF, 180 min) [µg/mL] | Concentration of Compound A (SGF, 10 min) [µg/mL] | Concentration of Compound A (SGF, 30 min) [µg/mL] | Concentration of Compound A (SGF, 60 min) [µg/mL] | Concentration of Compound A (SGF, 180 min) [µg/mL] | Structure (SMILES)
1 | 102 | 63 | 9 | 0 | 531 | 575 | 48 | 49 | 491 | 0 | 0 | 0 | CN(C(=O)c1cc(C(F)(F)F)cc(C(F)(F)F)c1)[C@@H](/C=C/C(=O)N[C@@H]1CCCCNC1=O)Cc1ccc(Cl)c(Cl)c1 [A-amorphous, (4R)-4-[N′-methyl-N′-(3,5-bistrifluoromethyl-benzoyl)-amino]-4-(3,4-dichlorobenzyl)-but-2-enoic acid N—[(R)-epsilon-caprolactam-3-yl]-amide]
2 | 0 | 0 | 0 | 0 | 62 | 54 | 56 | 44 | 0 | 0 | 0 | 0 | CN(C(=O)c1cc(C(F)(F)F)cc(C(F)(F)F)c1)[C@@H](/C=C/C(=O)N[C@@H]1CCCCNC1=O)Cc1ccc(Cl)c(Cl)c1 [Compd A crystalline (hemihydrate), (4R)-4-[N′-methyl-N′-(3,5-bistrifluoro-methyl-benzoyl)-amino]-4-(3,4-dichlorobenzyl)-but-2-enoic acid N—[(R)-epsilon-caprolactam-3-yl]-amide semihydrate]
